Laboratory results as given in the supplement of paper PMC10307832.

Tests used:
Test in all cases: relative viability (nuclei count vs DMSO), 5 days (fraction); higher = more cells survive
NCI-H1793 = test system: NCI-H1793
Summary of the method: (§1)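 Lung cancer cell lines were seeded in 1536-well plates and dosed by pin tool the next day, with either a single drug or a fixed anchor-drug dose combined with five library-drug doses (not always all listed) spaced in √10 steps. Five days later, one step fixed the cells and stained their nuclei (final 0.05% Triton X-100, 1% formaldehyde, 1 ug/ml Hoechst), and nuclei were counted on 4× images. Relative viability is the nuclei count in treated wells divided by the count in vehicle wells, and each value is the median of duplicate plates.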

NCI-H2170 = test system: NCI-H2170
Summary of the method: as §1

HCC-78 = test system: HCC-78
Summary of the method: as §1

SW 900 = test system: SW 900
Summary of the method: as §1

NCI-H2085 = test system: NCI-H2085
Summary of the method: as §1

COR-L 105 = test system: COR-L 105
Summary of the method: as §1

NCI-H1944 = test system: NCI-H1944
Summary of the method: as §1

NCI-H1666 = test system: NCI-H1666
Summary of the method: as §1

EPLC-272H = test system: EPLC-272H
Summary of the method: as §1

NCI-H358 = test system: NCI-H358
Summary of the method: as §1

NCI-H1915 = test system: NCI-H1915
Summary of the method: as §1

SK-LU-1 = test system: SK-LU-1
Summary of the method: as §1

NCI-H460 = test system: NCI-H460
Summary of the method: as §1

LC-2-ad = test system: LC-2-ad
Summary of the method: as §1

A-427 = test system: A-427
Summary of the method: as §1

UMC-11 = test system: UMC-11
Summary of the method: as §1

HOP-62 = test system: HOP-62
Summary of the method: as §1

LXF-289 = test system: LXF-289
Summary of the method: as §1

HCC-366 = test system: HCC-366
Summary of the method: as §1

LU99A = test system: LU99A
Summary of the method: as §1

NCI-H2009 = test system: NCI-H2009
Summary of the method: as §1

SMILES: CC(=O)O[C@@]12CO[C@@H]1C[C@H](O)[C@@]1(C)C(=O)[C@H](O)C3=C(C)[C@@H](OC(=O)[C@H](O)[C@@H](NC(=O)OC(C)(C)C)c4ccccc4)C[C@@](O)([C@@H](OC(=O)c4ccccc4)[C@H]21)C3(C)C [Docetaxel] + Cc1cc(Nc2cc(N3CCN(C)CC3)nc(Sc3ccc(NC(=O)C4CC4)cc3)n2)n[nH]1 [Tozasertib] (partner 0.1 µM)
- relative viability (NCI-H1793; first compound 0.0002 µM): 0.372
- relative viability (NCI-H1793; first compound 0.000632 µM): 0.285
- relative viability (NCI-H1793; first compound 0.002 µM): 0.197
- relative viability (NCI-H1793; first compound 0.006325 µM): 0.195
- relative viability (NCI-H1793; first compound 0.02 µM): 0.136
- relative viability (NCI-H2170; first compound 0.0002 µM): 0.615
- relative viability (NCI-H2170; first compound 0.000632 µM): 0.581
- relative viability (NCI-H2170; first compound 0.002 µM): 0.43
- relative viability (NCI-H2170; first compound 0.006325 µM): 0.222
- relative viability (NCI-H2170; first compound 0.02 µM): 0.175
- relative viability (HCC-78; first compound 0.0002 µM): 0.386
- relative viability (HCC-78; first compound 0.000632 µM): 0.436
- relative viability (HCC-78; first compound 0.002 µM): 0.278
- relative viability (HCC-78; first compound 0.006325 µM): 0.344
- relative viability (HCC-78; first compound 0.02 µM): 0.368
- relative viability (SW 900; first compound 0.0002 µM): 0.453
- relative viability (SW 900; first compound 0.000632 µM): 0.296
- relative viability (SW 900; first compound 0.002 µM): 0.259
- relative viability (SW 900; first compound 0.006325 µM): 0.277
- relative viability (SW 900; first compound 0.02 µM): 0.173
- relative viability (NCI-H2085; first compound 0.0002 µM): 0.743
- relative viability (NCI-H2085; first compound 0.000632 µM): 0.779
- relative viability (NCI-H2085; first compound 0.002 µM): 0.664
- relative viability (NCI-H2085; first compound 0.006325 µM): 0.481
- relative viability (NCI-H2085; first compound 0.02 µM): 0.322
- relative viability (COR-L 105; first compound 0.0002 µM): 0.323
- relative viability (COR-L 105; first compound 0.000632 µM): 0.382
- relative viability (COR-L 105; first compound 0.002 µM): 0.36
- relative viability (COR-L 105; first compound 0.006325 µM): 0.384
- relative viability (COR-L 105; first compound 0.02 µM): 0.344
- relative viability (NCI-H1944; first compound 0.0002 µM): 0.23
- relative viability (NCI-H1944; first compound 0.000632 µM): 0.223
- relative viability (NCI-H1944; first compound 0.002 µM): 0.235
- relative viability (NCI-H1944; first compound 0.006325 µM): 0.194
- relative viability (NCI-H1944; first compound 0.02 µM): 0.15
- relative viability (NCI-H1666; first compound 0.0002 µM): 0.564
- relative viability (NCI-H1666; first compound 0.000632 µM): 0.506
- relative viability (NCI-H1666; first compound 0.002 µM): 0.496
- relative viability (NCI-H1666; first compound 0.006325 µM): 0.418
- relative viability (NCI-H1666; first compound 0.02 µM): 0.31
- relative viability (EPLC-272H; first compound 0.0002 µM): 0.219
- relative viability (EPLC-272H; first compound 0.000632 µM): 0.129
- relative viability (EPLC-272H; first compound 0.002 µM): 0.132
- relative viability (EPLC-272H; first compound 0.006325 µM): 0.0975
- relative viability (EPLC-272H; first compound 0.02 µM): 0.104
- relative viability (NCI-H358; first compound 0.0002 µM): 0.114
- relative viability (NCI-H358; first compound 0.000632 µM): 0.112
- relative viability (NCI-H358; first compound 0.006325 µM): 0.137
- relative viability (NCI-H358; first compound 0.02 µM): 0.117
- relative viability (NCI-H1915; first compound 0.0002 µM): 0.426
- relative viability (NCI-H1915; first compound 0.000632 µM): 0.322
- relative viability (NCI-H1915; first compound 0.002 µM): 0.247
- relative viability (NCI-H1915; first compound 0.006325 µM): 0.201
- relative viability (NCI-H1915; first compound 0.02 µM): 0.142
- relative viability (SK-LU-1; first compound 0.0002 µM): 0.297
- relative viability (SK-LU-1; first compound 0.000632 µM): 0.302
- relative viability (SK-LU-1; first compound 0.002 µM): 0.308
- relative viability (SK-LU-1; first compound 0.006325 µM): 0.252
- relative viability (SK-LU-1; first compound 0.02 µM): 0.217
- relative viability (NCI-H460; first compound 0.0002 µM): 0.358
- relative viability (NCI-H460; first compound 0.000632 µM): 0.368
- relative viability (NCI-H460; first compound 0.002 µM): 0.0923
- relative viability (NCI-H460; first compound 0.006325 µM): 0.0604
- relative viability (NCI-H460; first compound 0.02 µM): 0.0207
- relative viability (LC-2-ad; first compound 0.0002 µM): 0.487
- relative viability (LC-2-ad; first compound 0.000632 µM): 0.395
- relative viability (LC-2-ad; first compound 0.002 µM): 0.302
- relative viability (LC-2-ad; first compound 0.006325 µM): 0.37
- relative viability (A-427; first compound 0.0002 µM): 0.176
- relative viability (A-427; first compound 0.000632 µM): 0.237
- relative viability (A-427; first compound 0.002 µM): 0.193
- relative viability (A-427; first compound 0.006325 µM): 0.162
- relative viability (A-427; first compound 0.02 µM): 0.132
- relative viability (UMC-11; first compound 0.0002 µM): 0.193
- relative viability (UMC-11; first compound 0.000632 µM): 0.193
- relative viability (UMC-11; first compound 0.002 µM): 0.218
- relative viability (UMC-11; first compound 0.006325 µM): 0.227
- relative viability (UMC-11; first compound 0.02 µM): 0.217
- relative viability (HOP-62; first compound 0.0002 µM): 0.353
- relative viability (HOP-62; first compound 0.000632 µM): 0.401
- relative viability (HOP-62; first compound 0.002 µM): 0.281
- relative viability (HOP-62; first compound 0.006325 µM): 0.277
- relative viability (LXF-289; first compound 0.0002 µM): 0.172
- relative viability (LXF-289; first compound 0.000632 µM): 0.165
- relative viability (LXF-289; first compound 0.006325 µM): 0.125
- relative viability (LXF-289; first compound 0.02 µM): 0.114
- relative viability (HCC-366; first compound 0.0002 µM): 0.097
- relative viability (HCC-366; first compound 0.000632 µM): 0.0628
- relative viability (HCC-366; first compound 0.002 µM): 0.0488
- relative viability (HCC-366; first compound 0.006325 µM): 0.0475
- relative viability (HCC-366; first compound 0.02 µM): 0.0231
- relative viability (LU99A; first compound 0.0002 µM): 0.262
- relative viability (LU99A; first compound 0.000632 µM): 0.289
- relative viability (LU99A; first compound 0.002 µM): 0.236
- relative viability (LU99A; first compound 0.006325 µM): 0.307
- relative viability (LU99A; first compound 0.02 µM): 0.211
- relative viability (NCI-H2009; first compound 0.0002 µM): 0.626
- relative viability (NCI-H2009; first compound 0.000632 µM): 0.747
- relative viability (NCI-H2009; first compound 0.002 µM): 0.682
- relative viability (NCI-H2009; first compound 0.006325 µM): 0.553
- relative viability (NCI-H2009; first compound 0.02 µM): 0.302
